What follows are compounds tested against T1, p38 MAPK/MK2 (Homo sapiens, UniProt Q16539) (assay: In vitro activity assay of p38 MAPK/MK2 (Z-LYTE kinase assay kit)). Details: active p38α, inactive MK2, Ser/Thr 4; 1-hour reaction at 20° C.
T1 construct: purchased Carna (p38α); Abcam (MK2) 04-152; 79910
T1 sequence (Q16539 whole entry): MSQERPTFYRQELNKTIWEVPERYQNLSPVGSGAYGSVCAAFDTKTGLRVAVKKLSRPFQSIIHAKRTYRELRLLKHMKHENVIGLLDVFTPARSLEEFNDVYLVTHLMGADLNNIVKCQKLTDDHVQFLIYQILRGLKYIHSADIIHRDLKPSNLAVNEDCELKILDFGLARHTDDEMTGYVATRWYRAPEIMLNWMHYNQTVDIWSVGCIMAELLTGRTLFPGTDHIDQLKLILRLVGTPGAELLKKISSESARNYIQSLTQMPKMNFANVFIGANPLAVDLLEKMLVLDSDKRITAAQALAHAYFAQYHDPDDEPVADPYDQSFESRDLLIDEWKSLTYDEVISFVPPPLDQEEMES
T1 sequence (P49137 whole entry partner): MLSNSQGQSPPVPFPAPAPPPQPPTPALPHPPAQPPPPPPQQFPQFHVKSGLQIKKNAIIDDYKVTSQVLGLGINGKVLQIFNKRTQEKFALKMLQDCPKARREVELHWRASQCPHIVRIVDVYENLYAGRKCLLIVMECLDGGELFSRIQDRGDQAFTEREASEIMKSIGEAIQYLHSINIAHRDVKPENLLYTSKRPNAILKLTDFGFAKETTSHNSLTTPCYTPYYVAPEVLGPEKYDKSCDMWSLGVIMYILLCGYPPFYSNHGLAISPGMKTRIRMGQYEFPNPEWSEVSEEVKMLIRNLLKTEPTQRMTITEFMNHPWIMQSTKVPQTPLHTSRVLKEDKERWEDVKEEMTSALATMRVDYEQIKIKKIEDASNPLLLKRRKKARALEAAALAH
Assay type: biochemical
Description: The inhibitory effect of the compound on p38 MAPK/MK2 was evaluated using the Z-LYTE kinase assay kit (Thermo, PV3177). The test compound was dissolved in DMSO to obtain a 10 mM stock solution and stored at −20° C. for future use. The initial concentration of the compound was […], with 1% DMSO, 5-fold serial dilution, 8 concentrations, and duplicate wells. […] After a 1-hour reaction at 20° C., Development Reagent A diluted 2048-fold was added to each well, followed by incubation at room temperature for 1 hour. The reaction was terminated by adding 5 μL of stop buffer, and the plate was read using a microplate reader (Ex. 400 nm, Em. 445 nm; Ex. 400 nm, Em. 520 nm). The concentration-effect curve was fitted using GraphPad Prism 8 software, and the compound concentration resulting in 50% inhibition, IC50, was calculated.
Compound `COC[C@](C)(O)c1c(F)ccc(-c2cc(-n3c(C)cc(OCc4ncc(F)cc4F)c(Cl)c3=O)c(C)cn2)c1F` (atropisomer, axis not shown) [Compound 149] has an IC50 of 2.25 nM.
Work on `Cc1cnc(-c2ccc(F)c([C@@](C)(O)CO)c2)c(F)c1-n1c(C)cc(OCc2ncc(F)cc2F)c(Cl)c1=O` (single isomer, unassigned) [Compound 51-P1] yielded an IC50 of 1.83 nM.
In the case of `Cc1cnc(-c2ccc(F)c([C@](C)(O)CO)c2F)cc1-n1c(C)cc(OCc2ncc(F)cc2F)c(Cl)c1=O` (single isomer, unassigned) [Compound 65-1], the IC50 is reported as 1.27 nM.
In the case of `Cc1cnc(-c2ccc(F)c([C@@](C)(O)CO)c2F)cc1-n1c(C)cc(OCc2ncc(F)cc2F)c(Cl)c1=O` (single isomer, unassigned) [Compound 65-2], the IC50 is reported as 1.86 nM.
In the case of `Cc1cnc(-c2ccc(F)c([C@](C)(O)CO)c2F)cc1-n1c(C)cc(OCc2ncc(F)cc2F)c(Cl)c1=O` (single isomer, unassigned) [Compound 65-P2], the IC50 is reported as 0.4 nM.
Compound `Cc1cnc(-c2ccc3c(c2)C(C)(O)C(=O)N3)c(F)c1-n1c(C)cc(OCc2ncc(F)cc2F)c(Cl)c1=O` (single isomer, unassigned) [Compound 115-P1] has an IC50 of 0.14 nM.
For `Cc1cnc(-c2ccc3c(c2)C(C)(O)C(=O)N3)c(F)c1-n1c(C)cc(OCc2ncc(F)cc2F)c(Cl)c1=O` (single isomer, unassigned) [Compound 115-P2], the IC50 was 0.7 nM.
With `CNC(=O)C(C)(O)c1c(F)ccc(-c2cc(-n3c(C)cc(OCc4ncc(F)cc4F)c(Cl)c3=O)c(C)cn2)c1F` (single isomer, unassigned) [Compound 116-P2] the IC50 was 2.26 nM.
For `CNC(=O)C(C)(O)c1c(F)ccc(-c2cc(-n3c(C)cc(OCc4ncc(F)cc4F)c(Cl)c3=O)c(C)cn2)c1F` (single isomer, unassigned) [Compound 116-P4], the IC50 was 0.14 nM.
Compound `CNC(=O)C(C)(O)c1cccc(-c2cc(-n3c(C)cc(OCc4ncc(F)cc4F)c(Cl)c3=O)c(C)cn2)c1F` (single isomer, unassigned) [Compound 121-P1] has an IC50 of 6.81 nM.
`CNC(=O)C(C)(O)c1cccc(-c2cc(-n3c(C)cc(OCc4ncc(F)cc4F)c(Cl)c3=O)c(C)cn2)c1F` (single isomer, unassigned) [Compound 121-P2] gave an IC50 of 2.83 nM.
`Cc1cnc(-c2ccc(F)c(C(C)(O)C(N)=O)c2F)cc1-n1c(C)cc(OCc2ncc(F)cc2F)c(Cl)c1=O` (single isomer, unassigned) [Compound 125-P1] was tested, and the IC50 was 0.41 nM.
For `Cc1cnc(-c2ccc(F)c(C(C)(O)C(N)=O)c2F)cc1-n1c(C)cc(OCc2ncc(F)cc2F)c(Cl)c1=O` (single isomer, unassigned) [Compound 125-P3], the IC50 was 0.28 nM.
`Cc1cnc(-c2cccc(C(C)(O)C(N)=O)c2F)cc1-n1c(C)cc(OCc2ncc(F)cc2F)c(Cl)c1=O` (single isomer, unassigned) [Compound 126-P1] showed an IC50 of 1.68 nM.
`Cc1cnc(-c2cccc(C(C)(O)C(N)=O)c2F)cc1-n1c(C)cc(OCc2ncc(F)cc2F)c(Cl)c1=O` (single isomer, unassigned) [Compound 126-P3] was tested, and the IC50 was 0.28 nM.
`Cc1cnc(-c2cccc(C(=O)NO)c2)cc1-n1c(C)cc(OCc2ncc(F)cc2F)c(Cl)c1=O` [Compound 5] was tested, and the IC50 was 90.3 nM.
Compound `Cc1cnc(-c2cccc(C(=O)NOCCO)c2)cc1-n1c(C)cc(OCc2ncc(F)cc2F)c(Cl)c1=O` [Compound 7] has an IC50 of 87.5 nM.
For `Cc1cnc(-c2cccc(C(=O)N3CC(C)(O)C3)c2)cc1-n1c(C)cc(OCc2ncc(F)cc2F)c(Cl)c1=O` [Compound 10], the IC50 was 60.5 nM.
In the case of `CNC(=O)c1cc(-c2cc(-n3c(C)cc(OCc4ncc(F)cc4F)c(Cl)c3=O)c(C)cn2)ccc1F` [Compound 17], the IC50 is reported as 87.9 nM.
In the case of `Cc1cnc(-c2cccc(C(N)=O)c2F)cc1-n1c(C)cc(OCc2ncc(F)cc2F)c(Cl)c1=O` [Compound 21-P2], the IC50 is reported as 0.51 nM.
`Cc1cnc(-c2cccc([C@](C)(O)CO)c2F)cc1-n1c(C)cc(OCc2ncc(F)cc2F)c(Cl)c1=O` [Compound 35-P2] gave an IC50 of 0.71 nM.
`Cc1cnc(-c2cccc(C(C)(O)CO)c2F)cc1-n1c(C)cc(OCc2ncc(F)cc2F)c(Cl)c1=O` (centres unmarked) [Compound 35] gave an IC50 of 2.39 nM.
Work on `Cc1cnc(-c2cccc([C@](C)(O)CO)c2Cl)cc1-n1c(C)cc(OCc2ncc(F)cc2F)c(Cl)c1=O` [Compound 37-1] yielded an IC50 of 4.66 nM.
Work on `Cc1ccc(-c2ncc(C)c(-n3c(C)cc(OCc4ncc(F)cc4F)c(Cl)c3=O)c2F)cc1[C@@](C)(O)CO` [Compound 52-P1] yielded an IC50 of 0.12 nM.
Compound `Cc1cnc(-c2ccc(Cl)c([C@](C)(O)CO)c2)c(F)c1-n1c(C)cc(OCc2ncc(F)cc2F)c(Cl)c1=O` [Compound 53-1] has an IC50 of 1.2 nM.
`Cc1cnc(-c2ccc(Cl)c([C@@](C)(O)CO)c2)c(F)c1-n1c(C)cc(OCc2ncc(F)cc2F)c(Cl)c1=O` [Compound 53-2] was tested, and the IC50 was 3.02 nM.
`Cc1cnc(-c2cccc([C@](C)(O)CO)c2Cl)c(F)c1-n1c(C)cc(OCc2ncc(F)cc2F)c(Cl)c1=O` [Compound 62-P1] gave an IC50 of 0.35 nM.
`Cc1cnc(-c2cccc([C@@](C)(O)CO)c2Cl)c(F)c1-n1c(C)cc(OCc2ncc(F)cc2F)c(Cl)c1=O` [Compound 62-P3] showed an IC50 of 0.058 nM.
Compound `Cc1cnc(-c2cccc([C@@](C)(O)CO)c2)cc1-n1c(C)cc(OCc2ncc(F)cc2F)c(Cl)c1=O` [Compound 87-P1] has an IC50 of 8.54 nM.
In the case of `Cc1cnc(-c2cccc(C(C)(C)O)c2F)cc1-n1c(C)cc(OCc2ncc(F)cc2F)c(Cl)c1=O` [Compound 101], the IC50 is reported as 0.93 nM.
In the case of `Cc1cnc(-c2cccc(C(C)(C)O)c2O)cc1-n1c(C)cc(OCc2ncc(F)cc2F)c(Cl)c1=O` [Compound 102], the IC50 is reported as 0.15 nM.
Work on `Cc1cnc(-c2cc([C@@](C)(O)CO)ccc2F)c(F)c1-n1c(C)cc(OCc2ncc(F)cc2F)c(Cl)c1=O` [Compound 106-P1] yielded an IC50 of 7.73 nM.
With `Cc1cnc(-c2cc([C@@](C)(O)CO)ccc2Cl)c(F)c1-n1c(C)cc(OCc2ncc(F)cc2F)c(Cl)c1=O` [Compound 107-P1] the IC50 was 4.99 nM.
`Cc1cnc(-c2cc(F)cc([C@](C)(O)CO)c2F)cc1-n1c(C)cc(OCc2ncc(F)cc2F)c(Cl)c1=O` [Compound 110-1] was tested, and the IC50 was 1.94 nM.
`Cc1cnc(-c2cc(F)cc([C@@](C)(O)CO)c2F)cc1-n1c(C)cc(OCc2ncc(F)cc2F)c(Cl)c1=O` [Compound 110-P1] showed an IC50 of 0.7 nM.
In the case of `Cc1cnc(-c2ccc3c(c2)C(C)(C)NC3=O)c(F)c1-n1c(C)cc(OCc2ncc(F)cc2F)c(Cl)c1=O` [Compound 129], the IC50 is reported as 19.9 nM.
Work on `Cc1cnc(-c2ccc3c(c2F)C(C)(C)NC3=O)cc1-n1c(C)cc(OCc2ncc(F)cc2F)c(Cl)c1=O` [Compound 134] yielded an IC50 of 39.9 nM.
`Cc1cnc(-c2cccc(C3(O)CC3)c2F)cc1-n1c(C)cc(OCc2ncc(F)cc2F)c(Cl)c1=O` [Compound 135] gave an IC50 of 13 nM.
For `Cc1cnc(-c2cccc(C3(O)CC3)c2)c(F)c1-n1c(C)cc(OCc2ncc(F)cc2F)c(Cl)c1=O` [Compound 136], the IC50 was 26.2 nM.
Compound `Cc1cnc(-c2ccc(F)c(C(C)(O)C(=O)O)c2)c(F)c1-n1c(C)cc(OCc2ncc(F)cc2F)c(Cl)c1=O` (centres unmarked) [Compound 138-1] has an IC50 of 1.21 nM.
`CNCC(C)(O)c1cc(-c2ncc(C)c(-n3c(C)cc(OCc4ncc(F)cc4F)c(Cl)c3=O)c2F)ccc1F` (centres unmarked) [Compound 139] gave an IC50 of 53 nM.
`Cc1cc(OCc2ncc(F)cc2F)c(Cl)c(=O)n1-c1ccnc(-c2ccc(F)c(C(C)(C)O)c2F)c1` [Compound 142] gave an IC50 of 3.37 nM.
`Cc1cc(OCc2ncc(F)cc2F)c(Cl)c(=O)n1-c1ccnc(-c2cccc([C@@](C)(O)CO)c2F)c1` [Compound 143] showed an IC50 of 18.1 nM.
Work on `Cc1cc(OCc2ncc(F)cc2F)c(Cl)c(=O)n1-c1ccnc(-c2ccc(F)c([C@@](C)(O)CO)c2F)c1` [Compound 144] yielded an IC50 of 12.6 nM.
`CC[C@](O)(CO)c1cccc(-c2cc(-n3c(C)cc(OCc4ncc(F)cc4F)c(Cl)c3=O)c(C)cn2)c1F` [Compound 147] was tested, and the IC50 was 7.94 nM.
`COC[C@](C)(O)c1cccc(-c2cc(-n3c(C)cc(OCc4ncc(F)cc4F)c(Cl)c3=O)c(C)cn2)c1F` [Compound 148-P1] showed an IC50 of 15.9 nM.
Compound `CNCC(C)(O)c1cccc(-c2cc(-n3c(C)cc(OCc4ncc(F)cc4F)c(Cl)c3=O)c(C)cn2)c1F` (centres unmarked) [Compound 150] has an IC50 of 8.59 nM.
With `COc1cnc(-c2cccc([C@@](C)(O)CO)c2F)cc1-n1c(C)cc(OCc2ncc(F)cc2F)c(Cl)c1=O` [Compound 154] the IC50 was 20.6 nM.
With `COc1cnc(-c2cccc(C(C)(C)O)c2F)cc1-n1c(C)cc(OCc2ncc(F)cc2F)c(Cl)c1=O` [Compound 155] the IC50 was 3.49 nM.
`Cc1cc(OCc2ncc(F)cc2F)c(Cl)c(=O)n1-c1ccnc(-c2cccc(C3(CO)CC3)c2F)c1` [Compound 156] was tested, and the IC50 was 0.336 nM.

From US20260217652A1, “PHENYL-SUBSTITUTED HETEROARYL COMPOUND AND PHARMACEUTICAL COMPOSITION COMPRISING SAME, PREPARATION METHOD THEREFOR AND USE THEREOF” (SHANGHAI MEIYUE BIOTECH DEVELOPMENT CO., LTD., priority 2023, published 2026)
